Assay: xn = mol fraction of the nth substance listed
Settings: 298.15 K, 101.3 kPa, Liquid; for viscosity: Capillary tube (Ostwald / Ubbelohde) method

ClC=C(Cl)Cl [trichloroethene] + CO
Settings	mass density [kg/m3]	viscosity [mPa·s]
x1 = 0.0477	853.7	0.5565
x1 = 0.1014	920.3	0.5667
x1 = 0.1616	985.5	0.5738
x1 = 0.2308	1052.1	0.5833
x1 = 0.3105	1117.9	0.595
x1 = 0.4033	1184.5	0.6017
x1 = 0.5125	1251.2	0.6021
x1 = 0.643	1318.4	0.5908
x1 = 0.8021	1386.3	0.575
x1 = 1	1455.7	0.551

ClC=C(Cl)Cl [trichloroethene] + COC(C)=O
Settings	mass density [kg/m3]	viscosity [mPa·s]
x1 = 0.09	972.6	0.4128
x1 = 0.182	1022.8	0.4443
x1 = 0.2755	1074.4	0.4699
x1 = 0.372	1125.3	0.4925
x1 = 0.4703	1177.5	0.5147
x1 = 0.5713	1230.9	0.5325
x1 = 0.6748	1283.9	0.5447
x1 = 0.7806	1341	0.555
x1 = 0.8886	1397.9	0.5598
x1 = 1	1455.7	0.551

ClC=C(Cl)Cl [trichloroethene] + Cc1ccccc1
Settings	mass density [kg/m3]	viscosity [mPa·s]
x1 = 0.1166	917.5	0.5592
x1 = 0.2291	975.6	0.5535
x1 = 0.3367	1033	0.5498
x1 = 0.4417	1090.9	0.5452
x1 = 0.5426	1149	0.5432
x1 = 0.64	1210.5	0.5445
x1 = 0.7348	1270.8	0.5454
x1 = 0.8257	1331.5	0.5477
x1 = 0.9147	1393.2	0.5495
x1 = 1	1455.7	0.551

ClC=C(Cl)Cl [trichloroethene] + ClC(Cl)(Cl)Cl
Settings	mass density [kg/m3]	viscosity [mPa·s]
x1 = 0.1068	1568.1	0.8568
x1 = 0.212	1552.3	0.8098
x1 = 0.315	1536.3	0.7632
x1 = 0.4171	1520.8	0.7186
x1 = 0.5178	1506.7	0.6826
x1 = 0.6175	1495.3	0.6511
x1 = 0.7152	1484.6	0.6226
x1 = 0.8114	1475	0.5965
x1 = 0.9064	1464.6	0.5727
x1 = 1	1455.7	0.551

ClC=C(Cl)Cl [trichloroethene] + c1ccccc1
Settings	mass density [kg/m3]	viscosity [mPa·s]
x1 = 0.0997	923.8	0.5937
x1 = 0.1995	981.7	0.584
x1 = 0.2988	1037.2	0.5761
x1 = 0.3987	1094.6	0.5682
x1 = 0.4986	1152.3	0.5621
x1 = 0.5991	1211	0.5573
x1 = 0.6991	1269.8	0.5573
x1 = 0.7989	1330.3	0.5517
x1 = 0.8998	1391.9	0.5499
x1 = 1	1455.7	0.551
